{"source": "patent US6451340B1", "about": "“Nucleotide analog compositions” (Gilead Sciences, Inc., priority 1997, dated 2002)", "key": {"[1]": {"assay": "AD solubility in crystallization solvents", "type": "physicochemical", "details": "for solubility: organic solvent or mixture", "procedure": "Crystalline AD is prepared by allowing crystal formation in an AD composition, usually from a solution of AD in a crystallization mixture containing at least about 6%, typically at least about 30%, usually at least about 35%, of AD. One would ordinarily conduct crystallizations by preparing an AD solution comprising about 6-45% AD and about 55-94% crystallization solvent. […] AD is not freely soluble in some crystallization solvents, e.g., AD solubility in di-n-butyl ether is less than about 0.3 mg/mL, and adding these solvents to an AD solution increases the degree of saturation or supersaturation of the solution. One usually uses organic solutions containing an amount of AD that is near the upper solubility limit in the crystallization solvent(s). The lower amount, about 6%, is the minimum amount of AD needed in a solution to consistently yield crystals. Certain solvents, e.g., methanol or CH2Cl2, can contain more than about 50% AD.\nOne usually prepares Form 3 crystals by allowing crystals to grow in an anhydrous methanol solution of AD. One obtains AD in methanol by mixing sufficient noncrystalline or crystalline AD in methanol for about 10-15 minutes at room temperature or as needed to dissolve the solid AD to obtain a solution having at least about 100-150 mg AD/mL methanol. AD solubility in methanol at room temperature is greater than 600 mg/mL. Crystallization then proceeds for about 4 to about 48 hours at a temperature of about −5° to about 25°, usually at about 0-23°.\nRecrystallization generally begins shortly after completion of adding and mixing the di-n-butyl ether and one then allows recrystallization to proceed for about 4-36 hours, usually about 6-24 hours. Additional yield of crystals from recrystallization at room temperature for about 4-36 hours is usually obtained by cooling the recrystallization mixture to about 4-10° and allowing the mixture to stand about 1-6 hours at the reduced temperature. Usually, the amount of AD one uses in a recrystallization will be sufficient to form a saturated or nearly saturated solution, i.e., about 0.4 g/mL using acetone. Dissolution of AD in acetone is complete in about 2-8 minutes using moderate agitation. Material remaining undissolved after this initial mixing period is removed and discarded, followed by adding the second less polar solvent of the solvent pair to the mixture containing the first crystallization solvent.\nOne conducts a Form 3 recrystallization in methanol in the same manner as described herein for preparation of Form 3 crystals. A saturated or nearly saturated methanol solution is used to prepare the crystals, i.e., at least about 0.6 g/mL AD."}, "[2]": {"assay": "L-carnitine levels in patients taking AD", "type": "in vivo", "excerpt": "Formulations containing crystalline AD and an excipient(s) may also contain L-carnitine or salts of L-carnitine, e.g., L-carnitine-L-tartrate (2:1). […] Tablets containing L-carnitine-L-tartrate and AD may decrease the effect of pivalic acid on L-carnitine depletion in patients taking AD. The amount of L-carnitine to be included will be apparent to the clinician in view of the extent of depletion in patients."}}, "note": "Like-named read-outs stand apart in the source and are kept apart here.", "data": [{"smiles": "CC(C)(C)C(=O)OCOP(=O)(COCCn1cnc2c(N)ncnc21)OCOC(=O)C(C)(C)C", "note": "[AD, 9-[2-[[bis[(pivaloyloxy)methoxy]phosphinyl]methoxy]ethyl]adenine]", "values": [{"measurement": "saturated or nearly saturated solution of AD", "setting": "[1]; acetone", "result": "about 0.4 g/mL"}, {"measurement": "solubility", "setting": "[1]; di-n-butyl ether, read-out: AD solubility in di-n-butyl ether", "result": "< 0.3", "unit": "mg/mL"}, {"measurement": "saturated or nearly saturated solution of AD", "setting": "[1]; methanol", "result": "at least 0.6 g/mL"}, {"measurement": "amount of AD the solvent can contain", "setting": "[1]; methanol or CH2Cl2, % w/w", "result": "more than 50%"}, {"measurement": "upper limit of solubility of AD", "setting": "[1]; most crystallization solvents, room temperature, % w/w", "result": "10-41%"}, {"measurement": "solubility", "setting": "[1]; methanol, room temperature, read-out: AD solubility in methanol", "result": "> 600", "unit": "mg/mL"}, {"measurement": "effect on L-carnitine levels (release of pivalic acid in vivo)", "setting": "[2]", "result": "appears to lower the levels of L-carnitine"}]}]}
